Results taken from publication PMC9297976 (Journal of Applied Toxicology, 2021).

Tests used:
medaka Esr1 (mEsr1) [1] = target: T1, medaka Esr1 (mEsr1) (Oryzias latipes, UniProt P50241); assay: cell-based; parameters: species or system Japanese medaka (Oryzias latipes); conditions: for In vitro positive: Esr: mode of action in which EC50 or PC10 was obtained in RGA
T1 sequence (P50241 1-620): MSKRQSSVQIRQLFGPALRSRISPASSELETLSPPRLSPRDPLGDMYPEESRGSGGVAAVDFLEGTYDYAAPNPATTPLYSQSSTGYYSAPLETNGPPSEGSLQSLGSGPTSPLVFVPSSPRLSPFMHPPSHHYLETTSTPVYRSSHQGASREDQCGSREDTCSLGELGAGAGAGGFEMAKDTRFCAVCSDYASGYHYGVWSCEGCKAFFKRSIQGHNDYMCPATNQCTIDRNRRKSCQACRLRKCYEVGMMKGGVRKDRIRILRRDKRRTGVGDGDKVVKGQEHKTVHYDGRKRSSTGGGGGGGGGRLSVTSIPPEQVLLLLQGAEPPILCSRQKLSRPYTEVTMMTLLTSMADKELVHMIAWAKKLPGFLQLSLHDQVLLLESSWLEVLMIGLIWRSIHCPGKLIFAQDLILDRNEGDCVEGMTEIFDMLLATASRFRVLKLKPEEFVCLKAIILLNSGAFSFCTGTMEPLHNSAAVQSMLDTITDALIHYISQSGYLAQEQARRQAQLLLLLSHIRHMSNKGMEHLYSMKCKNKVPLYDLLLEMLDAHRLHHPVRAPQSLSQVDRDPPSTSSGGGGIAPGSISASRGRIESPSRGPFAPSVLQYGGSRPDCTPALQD

medaka ARβ (mArβ) [2] = target: T2, medaka ARβ (mArβ) (Oryzias latipes, UniProt D1MV73); assay: Medaka ARβ reporter gene assay, antagonist assay; assay type: cell-based, Japanese medaka (Oryzias latipes); conditions: 11‐KT spiked at 50 nM (D)
T2 sequence (D1MV73 1-744): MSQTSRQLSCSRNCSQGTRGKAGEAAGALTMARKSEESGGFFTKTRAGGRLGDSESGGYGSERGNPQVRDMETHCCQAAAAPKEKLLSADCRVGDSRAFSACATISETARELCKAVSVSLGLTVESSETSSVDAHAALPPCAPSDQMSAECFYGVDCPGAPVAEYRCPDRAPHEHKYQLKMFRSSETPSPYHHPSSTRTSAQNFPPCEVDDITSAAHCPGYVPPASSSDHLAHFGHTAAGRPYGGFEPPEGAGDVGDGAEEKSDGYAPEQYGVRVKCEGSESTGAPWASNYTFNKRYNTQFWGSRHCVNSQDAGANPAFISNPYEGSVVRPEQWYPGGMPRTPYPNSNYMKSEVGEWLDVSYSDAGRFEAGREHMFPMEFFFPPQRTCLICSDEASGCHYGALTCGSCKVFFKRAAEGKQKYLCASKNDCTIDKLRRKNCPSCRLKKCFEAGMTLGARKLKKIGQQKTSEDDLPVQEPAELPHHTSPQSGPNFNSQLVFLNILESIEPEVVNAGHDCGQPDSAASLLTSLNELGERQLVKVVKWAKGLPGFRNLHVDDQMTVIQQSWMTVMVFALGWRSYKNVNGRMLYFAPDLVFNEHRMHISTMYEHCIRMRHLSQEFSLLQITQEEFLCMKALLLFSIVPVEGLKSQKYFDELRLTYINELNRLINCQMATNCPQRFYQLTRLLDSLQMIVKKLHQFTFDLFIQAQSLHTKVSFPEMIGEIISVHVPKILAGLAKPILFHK

[3] = system: Japanese medaka (Oryzias latipes); assay: Fish Short‐Term Reproduction Assay; assay type: in vivo; conditions: for LOECREPRO: LOEC on reproduction (fecundity and/or fertility); for minimal effective concentration: Oryzias latipes, 504 h, read-out: LOECmVTG; for LOECTOX: lowest observed effect concentration on mortality; for GSI Female / GSI Male / HSI Female / HSI Male / Length Female / Length Male / Weight Female / Weight Male: completion of exposure
medaka ARβ (mArβ) [4] = target: T2, medaka ARβ (mArβ); assay: Medaka ARβ reporter gene assay, agonist assay; assay type: cell-based, Japanese medaka (Oryzias latipes)
medaka Esr1 (mEsr1) [5] = target: T1, medaka Esr1 (mEsr1); assay: Medaka Esr1 reporter gene assay, antagonist assay; assay type: cell-based, Japanese medaka (Oryzias latipes); conditions: E2 spiked at 1.0 nM (B)
[6] = measured concentration 184 μg/L
[7] = measured concentration 836 μg/L
[8] = 9.75 mg/L measured, 21 d, sig. ↓ vs control
[9] = measured concentration 0.357 mg/L
[10] = measured concentration 1.90 mg/L
[11] = measured concentration 9.75 mg/L

Compound: CC(C)COC(=O)c1ccccc1C(=O)OCC(C)C [DIBP, Diisobutyl phthalate]
- Agonistic activity PC10 (medaka Esr1 (mEsr1) [1]): PC10 = 3.0 × 10^−6 M
- In vitro positive: Esr (medaka Esr1 (mEsr1) [1]): Esr
- Antagonistic activity (medaka ARβ (mArβ) [2]; MAC = 1.0 × 10^−5 M): NE (MAC = 1.0 × 10^−5 M)^(D)
- Fertility rate ([3]; 35 μg/L measured, 21 d): 97 ± 4.8%
- Hepatic VTG, female ([3]; 35 μg/L measured, 21 d): 596 ± 144 ng/mg‐liver
- Hepatic VTG, male ([3]; 35 μg/L measured, 21 d): 0.3 ± 0.4 ng/mg‐liver
- Mortality ([3]; 35 μg/L measured, 21 d): 0.0%
- Mortality, number of dead fish ([3]; 35 μg/L measured, 21 d): 0
- Number of fertilized eggs (per female per day) ([3]; 35 μg/L measured, 21 d): 23 ± 6.6
- Number of total eggs (per female per day) ([3]; 35 μg/L measured, 21 d): 24 ± 7.0
- SSC female (joint plates with papillary processes) ([3]; 35 μg/L measured, 21 d): 0 ± 0
- SSC male (joint plates with papillary processes) ([3]; 35 μg/L measured, 21 d): 96 ± 11
- Fertility rate ([3]; 184 μg/L measured, 21 d): 97 ± 3.9%
- Hepatic VTG, male ([3]; 184 μg/L measured, 21 d): 0.2 ± 0.1 ng/mg‐liver
- Mortality ([3]; 184 μg/L measured, 21 d): 0.0%
- Mortality, number of dead fish ([3]; 184 μg/L measured, 21 d): 0
- Number of fertilized eggs (per female per day) ([3]; 184 μg/L measured, 21 d): 23 ± 6.9
- Number of total eggs (per female per day) ([3]; 184 μg/L measured, 21 d): 24 ± 7.2
- SSC female (joint plates with papillary processes) ([3]; 184 μg/L measured, 21 d): 0 ± 0
- SSC male (joint plates with papillary processes) ([3]; 184 μg/L measured, 21 d): 96 ± 10
- Hepatic VTG, female ([3]; 184 μg/L measured, 21 d, sig. ↓ vs control): 404 ± 85 ng/mg‐liver
- Fertility rate ([3]; 836 μg/L measured, 21 d): 96 ± 5.4%
- Hepatic VTG, male ([3]; 836 μg/L measured, 21 d): 2.2 ± 3.2 ng/mg‐liver
- Mortality ([3]; 836 μg/L measured, 21 d): 0.0%
- Mortality, number of dead fish ([3]; 836 μg/L measured, 21 d): 0
- Number of fertilized eggs (per female per day) ([3]; 836 μg/L measured, 21 d): 24 ± 5.9
- Number of total eggs (per female per day) ([3]; 836 μg/L measured, 21 d): 25 ± 5.8
- SSC female (joint plates with papillary processes) ([3]; 836 μg/L measured, 21 d): 0 ± 0
- SSC male (joint plates with papillary processes) ([3]; 836 μg/L measured, 21 d): 97 ± 18
- Hepatic VTG, female ([3]; 836 μg/L measured, 21 d, sig. ↓ vs control): 421 ± 73 ng/mg‐liver
- LOECREPRO [3]: ND (>836) μg/L
- minimal effective concentration [3]: > 0.836 µg/mL
- LOECTOX [3]: ND (>836) μg/L
- GSI Female ([3]; measured concentration 35 μg/L): 13.3 ± 2.3%
- GSI Male ([3]; measured concentration 35 μg/L): 1.2 ± 0.2%
- HSI Female ([3]; measured concentration 35 μg/L): 6.3 ± 1.60%
- HSI Male ([3]; measured concentration 35 μg/L): 2.7 ± 0.40%
- Length Female ([3]; measured concentration 35 μg/L): 33.6 ± 1.5 mm
- Length Male ([3]; measured concentration 35 μg/L): 31.9 ± 1.2 mm
- Weight Female ([3]; measured concentration 35 μg/L): 446 ± 48 mg
- Weight Male ([3]; measured concentration 35 μg/L): 335 ± 39 mg
- GSI Female [3, 6]: 13.6 ± 1.9%
- GSI Male [3, 6]: 1.0 ± 0.3%
- HSI Female [3, 6]: 6.3 ± 0.90%
- HSI Male [3, 6]: 3.1 ± 0.40%
- Length Female [3, 6]: 32.6 ± 1.5 mm
- Length Male [3, 6]: 31.8 ± 1.4 mm
- Weight Female [3, 6]: 405 ± 52 mg
- Weight Male [3, 6]: 329 ± 55 mg
- GSI Female [3, 7]: 12.0 ± 2.0%
- GSI Male [3, 7]: 1.2 ± 0.4%
- HSI Female [3, 7]: 5.9 ± 1.30%
- HSI Male [3, 7]: 3.4 ± 0.40%
- Length Female [3, 7]: 32.6 ± 1.4 mm
- Length Male [3, 7]: 32.4 ± 1.7 mm
- Weight Female [3, 7]: 413 ± 61 mg
- Weight Male [3, 7]: 348 ± 62 mg
- Agonistic activity (medaka ARβ (mArβ) [4]; MAC = 1.0 × 10^−5 M): NE (MAC = 1.0 × 10^−5 M)
- Antagonistic activity (medaka Esr1 (mEsr1) [5]; MAC = 1.0 × 10^−5 M): NE (MAC = 1.0 × 10^−5 M)^(B)

Compound: COC(=O)c1ccc(O)cc1 [MPB, 4‐Hydroxybenzoate methyl]
- EC50 (medaka Esr1 (mEsr1) [1]): 70 µM
- In vitro positive: Esr (medaka Esr1 (mEsr1) [1]): Esr
- Antagonistic activity (medaka ARβ (mArβ) [2]; MAC = 1.0 × 10^−4 M): NE (MAC = 1.0 × 10^−4 M)^(D)
- Fertility rate ([3]; 0.357 mg/L measured, 21 d): 93 ± 2.9%
- Hepatic VTG, female ([3]; 0.357 mg/L measured, 21 d): 3,450 ± 724 ng/mg‐liver
- Hepatic VTG, male ([3]; 0.357 mg/L measured, 21 d): 1.7 ± 1.2 ng/mg‐liver
- Mortality ([3]; 0.357 mg/L measured, 21 d): 0.0%
- Mortality, number of dead fish ([3]; 0.357 mg/L measured, 21 d): 0
- Number of fertilized eggs (per female per day) ([3]; 0.357 mg/L measured, 21 d): 27 ± 3.5
- Number of total eggs (per female per day) ([3]; 0.357 mg/L measured, 21 d): 29 ± 3.3
- SSC female (joint plates with papillary processes) ([3]; 0.357 mg/L measured, 21 d): 0 ± 0
- Fertility rate ([3]; 1.90 mg/L measured, 21 d): 88 ± 7.7%
- Hepatic VTG, female ([3]; 1.90 mg/L measured, 21 d): 3,890 ± 992 ng/mg‐liver
- Mortality ([3]; 1.90 mg/L measured, 21 d): 0.0%
- Mortality, number of dead fish ([3]; 1.90 mg/L measured, 21 d): 0
- Number of fertilized eggs (per female per day) ([3]; 1.90 mg/L measured, 21 d): 24 ± 3.0
- Number of total eggs (per female per day) ([3]; 1.90 mg/L measured, 21 d): 28 ± 3.3
- SSC female (joint plates with papillary processes) ([3]; 1.90 mg/L measured, 21 d): 0 ± 0
- SSC male (joint plates with papillary processes) ([3]; 1.90 mg/L measured, 21 d): 99 ± 12
- Hepatic VTG, male ([3]; 1.90 mg/L measured, 21 d, sig. ↑ vs control): 153 ± 113 ng/mg‐liver
- Hepatic VTG, female ([3]; 9.75 mg/L measured, 21 d): 3,930 ± 963 ng/mg‐liver
- Mortality ([3]; 9.75 mg/L measured, 21 d): 13%
- Mortality, number of dead fish ([3]; 9.75 mg/L measured, 21 d): 3
- SSC female (joint plates with papillary processes) ([3]; 9.75 mg/L measured, 21 d): 0 ± 0
- SSC male (joint plates with papillary processes) ([3]; 9.75 mg/L measured, 21 d): 93 ± 15
- Hepatic VTG, male ([3]; 9.75 mg/L measured, 21 d, sig. ↑ vs control): 2,640 ± 1720 ng/mg‐liver
- Fertility rate [3, 8]: 78 ± 4.8%
- Number of fertilized eggs (per female per day) [3, 8]: 16 ± 2.3
- Number of total eggs (per female per day) [3, 8]: 20 ± 2.2
- Fecundity, number of total eggs (in words) ([3]; 21 d): statistically significant decrease
- LOEC, elevated hepatic VTG in males ([3]; 21 d): 1.90 mg/L
- Daily fecundity on the first day ([3]; Figure 3C): less than 10 eggs/female
- LOECREPRO [3]: 9,750 μg/L
- minimal effective concentration [3]: 1.9 µg/mL
- LOECREPRO (reduction in fecundity or fertility) ([3]; concentrations without overt toxicity): 9,750 μg/L
- LOECTOX [3]: ND (>9,750) μg/L
- GSI Female [3, 9]: 11.0 ± 1.2%
- GSI Male [3, 9]: 0.74 ± 0.18%
- HSI Female [3, 9]: 4.4 ± 0.44%
- HSI Male [3, 9]: 2.1 ± 0.16%
- Length Female [3, 9]: 37.0 ± 1.3 mm
- Length Male [3, 9]: 36.0 ± 0.5 mm
- Weight Female [3, 9]: 589 ± 39 mg
- Weight Male [3, 9]: 514 ± 28 mg
- GSI Female [3, 10]: 11.0 ± 0.9%
- GSI Male [3, 10]: 0.81 ± 0.06%
- HSI Female [3, 10]: 4.7 ± 0.59%
- HSI Male [3, 10]: 2.4 ± 0.21%
- Length Female [3, 10]: 36.2 ± 1.2 mm
- Length Male [3, 10]: 36.4 ± 1.3 mm
- Weight Female [3, 10]: 574 ± 27 mg
- Weight Male [3, 10]: 530 ± 47 mg
- GSI Female [3, 11]: 9.8 ± 0.9%
- GSI Male [3, 11]: 0.69 ± 0.15%
- HSI Female [3, 11]: 5.4 ± 0.38%
- HSI Male [3, 11]: 2.3 ± 0.60%
- Length Female [3, 11]: 36.6 ± 1.4 mm
- Length Male [3, 11]: 36.2 ± 1.1 mm
- Weight Female [3, 11]: 603 ± 47 mg
- Weight Male [3, 11]: 504 ± 62 mg
- Agonistic activity (medaka ARβ (mArβ) [4]; MAC = 1.0 × 10^−4 M): NE (MAC = 1.0 × 10^−4 M)
- Antagonistic activity (medaka Esr1 (mEsr1) [5]; MAC = 1.0 × 10^−4 M): NE (MAC = 1.0 × 10^−4 M)^(B)
